Values joined by “and” are separate entries in the source; they are usually repeats but may differ in a detail not shown here. Identical values can stand only once.
Experiments:
Format in all cases: cell-based
[1] = system: MelanoDerm MEL-300; assay: Pigmentation in MelanoDerm Living Skin Equivalent (blue colour image analysis); conditions: for effect of South pole magnetism on skin depigmenting action: Kojic acid 500, Yohimbine 25, Ascorbic acid 285 micro-molar, magnet vs no magnet, p<0.05; for Pigmentation Reduction Magnet % South Pole (B): day 14, South Pole magnet; for Pigmentation Reduction Magnet % South Pole (B) / Pigmentation Reduction % No Magnet (A): individual tissues; for Pigmentation Reduction % No Magnet (A): day 14, no magnet, relative to untreated control
Procedure: Kojic acid, Vitamin C, and Yohimbine were examined for their ability to reduce pigmentation in the MelanoDerm Living Skin Equivalent in the presence and absence of South Pole magnetism. After 14 days of incubation, during which one series of tissues was exposed to South Pole magnetism and an equivalent duplicate series was not, the melanin color formed in each tissue was estimated using primary color image analysis.
MelanoDerm™ MEL-300, a 3-dimensional epidermal model containing functioning melanoctyes produced by MatTek Corporation, Ashland, Mass., was the tissue used for this experiment. Each MEL-300 kit has 24 tissue pieces.
Three depigmenting actives were added to the Melanoderm incubation medium at the following final concentrations,
Two (2) MEL-300 kits, each with 24 tissue pieces, were prepared with identical application of actives. Each active, Vitamin C, Kojic acid & Yohimbine, was applied to the incubation medium of 5 tissues at the concentrations specified above. 4 tissues were untreated. […] One Mel-300 kit prepared as above was placed on the 6 inch×4 inch South Pole surface of the Ferrimag magnet for incubation, and the identical second Mel-300 kit was incubated at the opposite side (top left vs bottom right) of the same incubator and additionally shielded from the magnet.
The tissues were incubated for 14 days in maintenance medium at 37 degrees centigrade and a constant atmosphere (5%CO2). The maintenance medium and actives were replenished 4 times weekly. At 7 days, 2 tissues were removed from each active and control group leaving 3 tissues in each group (2 in the untreated group) for day 14 evaluation.
At the day 14 completion of the experiment the tissue pieces of each Mel-300 incubation plate were photographed from above. Each tissue appeared as a small disc varying in brown color intensity. The photographs of two Mel-300 incubation plates (one incubated on the magnet and one without magnetism) were scanned into a Pentium II computer and the color primary color content of each disc was measured using a color analysis macro within an Optimas image quantification software package. The blue color content was used as an index of melanin pigment (preliminary experiments confirmed that the principle primary color of melanin is blue using this image analysis system—this was established by comparing brown freckles and age spots with surrounding non-pigmented skin in color photographs of Caucasian human skin). The blue color intensity scale is 0-255 where 0 is saturation with blue color and 255 is total absence of blue color. The actual blue scale reading of each tissue sample was converted to a % blue value by computing it's proportion of the full range of 0to 255.

[2] = system: MelanoDerm tissue; assay: MelanoDerm tissue viability by MTT; conditions: 0.5% in water, preliminary experiment
Procedure: Phytic acid was tested at a concentration of 0.5% in water.

[3] = system: IL1-a; assay: IL1-a release by MelanoDerm Living Skin Equivalents (Elisa); parameters: IL1-a(i) / IL1-a(ii): unit not given here; conditions: 0.5% phytic acid; for IL1-a release % Untreated: 24 hr; for IL1-a(i): first determination; for IL1-a(i) / IL1-a(ii): individual tissues; for IL1-a Mean: mean of (i) and (ii); for IL1-a(ii): second determination 7 days later
Procedure: (§1) Phytic acid (0.5%) was examined for its effect on cytokine release by MelanoDerm Living Skin Equivalents in the presence and absence of South Pole magnetism. After 24 hours incubation, during which one set of tissues was exposed to South Pole magnetism and an equivalent duplicate series was not, the culture medium was assayed for IL1-a and PGE-2. In the absence of magnetism there was a significant increase in medium concentration of both IL1-a and PGE-2. These increases were suppressed in the presence of South pole magnetism. Living Skin Equivalent: MelanoDermTM MEL-300, a 3-dimensional epidermal model containing functioning melanoctyes produced by MatTek Corporation, Ashland, Mass., was the tissue used for this experiment. Fifty (50) microliters of phytic acid solution (0.5%) was applied to the stratum corneum surface of 4 MEL-300 tissues. Eight (8) untreated MEL-300 tisues served as controls. Half the tissues (i.e. 2 phytic acid and 4 untreated controls) were placed on the 6 inch×4 inch South Pole surface of the […] magnet for 24 hours incubation (37 degrees centigrade; 5% CO2). After the 24 hr incubation the tissues were removed from the incubation medium and assayed for MTT to confirm tissue viability. The incubation medium was assayed for content of cytokines IL1-a and PGE-2. The tissue samples were refrigerated and a second determination of cyotkines was made 7 days later. The cytokine assays were performed using commercially available 96 well Elisa kits.

[4] = system: PGE-2; assay: PGE-2 release by MelanoDerm Living Skin Equivalents (Elisa); parameters: PGE-2(i) / PGE-2 (ii): unit not given beside the values; conditions: 0.5% phytic acid; for PGE-2 release % Untreated: 24 hr; for PGE-2(i): first determination; for PGE-2(i) / PGE-2 (ii): individual tissues; for PGE-2 Mean: mean of (i) and (ii); for PGE-2 (ii): second determination 7 days later
Procedure: as §1

[5] = system: human sebocytes; assay: Lipid production by sebocytes in vitro (14C-acetate incorporation); conditions: for % Reduction: vs control of same plate
Procedure: This example measured the effect of various actives in combination with magnets on lipid production by sebocytes in vitro.
Secondary cultures of human sebocytes obtained from an adult […] were grown in the inner 24 wells of 48-well tissue culture plates (Costar Corp.; Cambridge, Mass.) until confluent. Sebocyte growth medium consisted of Clonetics Keratinocyte Basal Medium (KBM) supplemented with 14 ug/ml bovine pituitary extract, 0.4 ug/ml hydrocortisone, 5 ug/ml insulin, 10 ng/ml epidermal growth factor, 1.2×10^−10 M cholera toxin, 100 units/ml penicillin, and 100 ug/ml streptomycin. All cultures were incubated at 37° C. in the presence of 7.5% CO2. Medium was changed three times per week.
On the first day of experimentation, the growth medium was removed and the sebocytes washed three times with sterile Dulbecco's Modified Eagle Medium (DMEM; phenol red free). Fresh DMEM was added to each sample (triplicates) with 5 microliter of test agent solubilized in ethanol (312.5 uM iso-tridecylsalicylate or 10 uM Retinyl Linoleate; 6 replicates for each sample). Controls consisted of addition of ethanol alone. Each magnet was sandwiched between 2 plates for 24 hours. For 2 of the sebocyte plates, the configuration was North magnet pointing up, for 2 other plates, the configuration was reversed (South magnet up), and one plate served as a control (no presence of magnets).
After 24 hours, addition of ^14C-acetate buffer (5 mM final concentration, 56 mCi/mmol specific activity) was performed. Sebocytes were then returned to the incubator for four hours after which each culture was rinsed three times with phosphate buffered saline to remove unbound label. Radioactive label remaining in the sebocytes was harvested and counted using a Beckman scintillation counter.

[6] = No Magnetism, increase over untreated
[7] = 10 uM Retinyl Linoleate, Plate A: No Magnet Presence
[8] = 10 uM Retinyl Linoleate, Plate B: North Magnet Up (Top Plate)
[9] = 10 uM Retinyl Linoleate, Plate C: North Magnet Up (Bottom Plate)
[10] = 10 uM Retinyl Linoleate, Plate D: South Magnet Up (Top Plate)
[11] = 10 uM Retinyl Linoleate, Plate E: South Magnet Up (Bottom Plate)
[12] = 312.5 uM TDS, Plate A: No Magnet Presence
[13] = 312.5 uM TDS, Plate B: North Magnet Up (Top Plate)
[14] = 312.5 uM TDS, Plate C: North Magnet Up (Bottom Plate)
[15] = 312.5 uM TDS, Plate D: South Magnet Up (Top Plate)
[16] = 312.5 uM TDS, Plate E: South Magnet Up (Bottom Plate)

## O=c1cc(CO)occ1O [Kojic Acid, Kojic acid]
[1]
  effect of South pole magnetism on skin depigmenting action: enhances
[1]; Kojic acid 500 micro-molar
  Mean A-B (Mean Difference): −2.06
  Pigmentation Reduction Magnet % South Pole (B): −9.21% and −10.02% and 4.75%
  Pigmentation Reduction % No Magnet (A): −4.77% and −8.72% and −4.27%

## O=P(O)(O)O[C@H]1[C@H](OP(=O)(O)O)[C@@H](OP(=O)(O)O)[C@H](OP(=O)(O)O)[C@@H](OP(=O)(O)O)[C@H]1OP(=O)(O)O [Phytic acid]
[2]
  toxicity to MelanoDerm tissue (tissue viability by MTT): non-toxic
[3]; + South Pole Magnetism, increase over untreated plus magnet
  IL1-a release % Untreated: 16%
[3]; [6]
  IL1-a release % Untreated: 99%
[3]; South Pole magnet
  IL1-a(i): 239.1 and 108.9
  IL1-a Mean: 151.2 +/− 64
  IL1-a(ii): 158.2 and 98.4
[3]; no magnet
  IL1-a(i): 285.3 and 222.9
  IL1-a Mean: 209 +/− 61
  IL1-a(ii): 186.2 and 141.1
[4]; + South Pole Magnetism, change over untreated plus magnet
  PGE-2 release % Untreated: −2%
[4]; [6]
  PGE-2 release % Untreated: 191%
[4]; South Pole magnet
  PGE-2(i): 2056 and 2387
  PGE-2 Mean: 2093 +/− 208
  PGE-2 (ii): 1899 and 2030
[4]; no magnet
  PGE-2(i): 5326 and 4673
  PGE-2 Mean: 5136 +/− 421
  PGE-2 (ii): 5621 and 4923

## CCCCC/C=C\C/C=C\CCCCCCCC(=O)OC/C=C(C)/C=C/C=C(C)/C=C/C1=C(C)CCCC1(C)C [Retinyl Linoleate]
[5]; [7]
  DPMs (AVG): 4198.1 DPMs
  % Reduction: 3.9%
[5]; [8]
  DPMs (AVG): 4123.0 DPMs
  % Reduction: 6.5%
[5]; [9]
  DPMs (AVG): 3660.1 DPMs
  % Reduction: 1.8%
[5]; [10]
  DPMs (AVG): 3619.4 DPMs
  % Reduction: −1.6%
[5]; [11]
  DPMs (AVG): 3181.1 DPMs
  % Reduction: 5.6%

## O=C1O[C@H]([C@@H](O)CO)C(O)=C1O [Vitamine C, Ascorbic acid]
[1]; Ascorbic acid 285 micro-molar
  Mean A-B (Mean Difference): −3.97
  Pigmentation Reduction Magnet % South Pole (B): −6.18% and −6.34% and −4.55%
  Pigmentation Reduction % No Magnet (A): −4.21% and −2.65% and 1.7%
[1]
  effect of South pole magnetism on skin depigmenting action: enhances

## COC(=O)[C@@H]1[C@H]2C[C@H]3c4[nH]c5ccccc5c4CCN3C[C@@H]2CC[C@@H]1O [Yohimbine]
[1]
  effect of South pole magnetism on skin depigmenting action: enhances
[1]; Yohimbine 25 micro-molar
  Mean A-B (Mean Difference): −3.27
  Pigmentation Reduction Magnet % South Pole (B): −2.55% and −8.08% and −6.76%
  Pigmentation Reduction % No Magnet (A): 1.85% and −5.63% and −3.8%

## iso-tridecylsalicylate [TDS]
[5]; [12]
  DPMs (AVG): 2913.0 DPMs
  % Reduction: 36.3%
[5]; [13]
  DPMs (AVG): 3367.8 DPMs
  % Reduction: 23.6%
[5]; [14]
  DPMs (AVG): 3543.9 DPMs
  % Reduction: 4.9%
[5]; [15]
  DPMs (AVG): 3040.0 DPMs
  % Reduction: 14.7%
[5]; [16]
  DPMs (AVG): 2677.4 DPMs
  % Reduction: 20.5%

— patent US6761896B1, “Skin cosmetic care system and method” (Unilever Home & Personal Care USA, division of Conopco, Inc., priority 1998, dated 2004)
